Experimental data: US20050113317A1, “Combination of dehydroepiandrosterone or dehydroepiandrosterone-sulfate with a cromone for treatment of asthma or chronic obstructive pulmonary disease” (priority 2003, published 2005)
“And” between values parts separate entries of the source, which are not always exact repeats. Equal entries are not always repeated.

Columns and labels:
[1] = Particle size of jet-milled / spray-dried DHEA-S (Malvern Mastersizer X, light microscope); type: physicochemical; settings: two batches, visual examination of dispersions
Description: Approximately 1 g sample was passed through the jet mill, once, and approximately 2 g sample were passed through the jet mill twice. […] The resulting solution was sonicated for 3 minutes and appeared fully dispersed. The dispersed solutions were tested on a Malvern Mastersizer X with a small volume sampler (SVS) attachment. One sample of dispersed material was tested 5 times. The median particle size or D (v, 0.5) of unmilled material was 52.56 μm and the % RSD (relative standard deviation) was 7.61 for the 5 values. The D (v, 0.5) for a single pass through the jet mill was 3.90 μm and the % RSD was 1.27, and the D (v, 0.5) from a double pass through the jet mill 3.25 μm and the % RSD was 3.10.
The solution was spray-dried with a B-191 Mini Spray-Drier (Buchi, Flawil, Switzerland) with an inlet temperature of 55° C., outlet temperature of 40° C., at 100% aspirator, at 10% pump, nitrogen flow at 40 mbar and spray flow at 600 units. The spray-dried product was suspended in hexane and Span85 surfactant added to reduce agglomeration. The dispersions were sonicated with cooling for 3-5 minutes for complete dispersion and the dispersed solutions tested on a Malvern Mastersizer X with a Small Volume Sampler (SVS) attachment. […] Visual examination by light microscope of the dispersions of each batch confirmed that spray drying produced small respirable size particles. […]

HT-29 SF cells [2] = test: Reversal of DHEA effect on cell cycle; type: cell-based, human; settings: 25 FM DHEA
[3] = tested on: Intracellular adenosine in various Rat Tissues; test: In vivo effect on adenosine levels in rat tissues
Description: Folinic acid (50 mg/kg) was administered intraperitoneally once daily for fourteen days. […] Hearts were removed from animals and flash frozen in liquid nitrogen with 10 s of death. Liver and lungs were removed en bloc and flash frozen with 30 s of death. Brain tissue was subsequently dissected.

HT-29 SF cells [4] = test: DHEA effect on cell cycle (flow cytometry); type: cell-based, human
[5] = Solid-state stability with and without lactose at 50° C. (DHEA formed, HPLC); type: physicochemical; settings: 1 week at 50° C.; neat and lactose blend
Description: These conditions were used to stress the formulation in order to predict its long-term stability results. […] The primary degradant is DHEA. […] The materials on accelerated storage become more cohesive with time as evidenced by clumping during sample weighing for chemical analysis. […] This is a considerable disadvantage since lactose is the most commonly used inhalation excipient for dry powder formulations. Continuing with the virtually anhydrous form would mean limiting formulations to neat powder or undertaking more comprehensive safety studies to use a novel excipient.

[6] = HPLC analysis of drug degradation during jet milling; type: physicochemical; settings: HPLC peak area vs unmilled standard; single- and double-pass
Description: Two vials (A; single-pass; 150 mg) and (B double-pass; 600 mg) of the micronized drug were available for determining drug degradation during jet milling micronization. […] The chromatographic peak area for the HPLC assay of the unmilled drug standard solution (10 mg/ml) gave a value of 23,427. […] The chromatographic peak areas for vials A and B were 11,979 and 11,677, respectively.

[7] = Solubility of DHEA-S in NaCl media; type: physicochemical
Description: Inhalation of pure water can produce a cough stimulus. […] The temperature effect is weaker at high NaCl concentrations.

[8] = Short-term solution stability of DHEA-S nebulizer formulation; type: physicochemical; settings: for appearance / solution stability: 10 mg/mL in 0.12% NaCl
Description: Aliquots of this solution are filled into clear glass vials and stored at RT (24-26° C.) and at 40° C. The samples are checked daily for DHEA-S content, DHEA content, and appearance. For each time point, duplicate samples are withdrawn and diluted from each vial. […] The study is stopped on day three. […] The solution should easily be stable for the day of reconstitution in a clinical trial. The following section describes the aerosol properties of this formulation.

[9] = tested on: rat peritoneal mast cells; test: Mast cell degranulation (histamine secretion) after compound 48/80; type: cell-based
Description: We determined whether DHEA-sulfate would reduce mast cell degranulation after stimulation with compound 48/80 in rat peritoneal mast cells. Mast cell degranulation was quantified by measurement of histamine, a substance contained within the secretory granules of mast cells. The release of histamine is believed to parallel the release of leukotrienes and contribute to the respiratory dysfunction.
Freshly isolated rat peritoneal mast cells (2×10^5 cells) were pre-incubated for 5 min at 37° C. in a Balanced Salt Solution containing 150 mM NaCl (pH 7.4), 2.7 mM KCl, 0.9 mM CaCl2, 4 mM Na2HPO4, 2.7 mM KH2PO4, 1.75 mg/ml BSA and 0.1 μg/ml compound 48/80.
Following incubation, the mixture is cooled to 4° C. then centrifuged at 4500 rpm for 5 min. The supernatant is collected and mixed for 30 min at 4° C. with 5% TCA (trichloroacetic acid) to cause protein precipitation. After centrifugation at 9500×g for 15 min, the supernatant is collected and mixed with 0.25 M HCl. Thereafter, the samples are mixed with 2M NaOH and 0.2% OPT (ortho-phtalaldehyde) and incubated for 30 min at 4° C. in darkness, after which time the reaction is stopped by addition of 0.5 M H2SO4.
The amount of secreted histamine is quantified by measuring the fluorescence intensity at λex=360 nm and λem=450 nm using a spectrofluorimeter (GeminiXS, Molecular Devices). The results are expressed as a percent inhibition of control histamine secretion.

[10] = Solubility remarks in text; type: physicochemical; settings: 10^-4 M; mast cell assay conditions
[11] = 15° C., 20 mM Na^+, Ksp 1316 mM^2

C[C@]12CC[C@H](OS(=O)(=O)[O-])CC1=CC[C@@H]1[C@@H]2CC[C@]2(C)C(=O)CC[C@@H]12.[Na+] [Anhydrous DHEA-S]
mean particle size by light microscope [1]: 2.4 μm and 2.0 μm

CC(C)CCC[C@@H](C)[C@H]1CC[C@H]2[C@@H]3CC=C4C[C@@H](O)CC[C@]4(C)[C@H]3CC[C@]12C [CH, cholesterol]
prevention of DHEA-induced S phase depletion (HT-29 SF cells [2]; 72 hours): no effect

C[C@]12CC[C@H](O)CC1=CC[C@@H]1[C@@H]2CC[C@]2(C)C(=O)CC[C@@H]12 [DHEA, 3β-hydroxyandrost-5-en-17-one]
effect on tissue adenosine ([3]; rat, in vivo): multi-organ depletion of adenosine
cell cycle distribution (HT-29 SF cells [4]; 200 μM DHEA, after 24 hours): more rapid increase in the percentage of cells in G1 and a decreased proportion of cells in S phase
cell cycle effect (HT-29 SF cells [4]; 25, 50, 200 μM, 24-72 hours): G1 block in HT-29 SF cells in a time-and dose-dependent manner

CC12CCC3C(CC=C4CC(OS(=O)(=O)[O-])CCC43C)C1CCC2=O.[Na+] (centres unmarked) [DHEA-S Dihydrate]
DHEA generated on storage [5]: virtually no DHEA generated

C[C@]12CC[C@H](OS(=O)(=O)[O-])CC1=CC[C@@H]1[C@@H]2CC[C@]2(C)C(=O)CC[C@@H]12.[Na+] [DHEA-S, sodium dehydroepiandrostenone sulfate]
degradation during jet milling micronization [6]: no detectable degradation
estimated DHEA-S solution concentration [7, 11]: 10.7 mg/mL
estimated DHEA-S^− solution concentration [7, 11]: 27.5 mM
solubility as a function of NaCl concentration ([7]; RT and refrigerated): decrease with NaCl concentration
effect of 20 mM phosphate buffer on solubility ([7]; RT, buffered vs unbuffered): suppress the solubility
solution stability ([8]; 7.5 mg/mL of DHEA-S in 0.12% NaCl, RT): stable for at least one day at RT
appearance / solution stability ([8]; 40° C.): became cloudy after two days of storage
appearance / solution stability ([8]; RT (24-26° C.)): slight precipitate is observed on the third day
maximal effect, inhibition of mast cell degranulation ([9]; at 0.1 uM, percent inhibition of control histamine secretion): 69.9%
inhibition of mast cell degranulation ([9]; rat peritoneal mast cells, compound 48/80): concentration-dependent inhibition
EC50 ([9]; rat peritoneal mast cells, compound 48/80, histamine secretion, read-out: EC50, inhibition of mast cell degranulation): 170 nM
solubility under assay conditions [10]: highly limited

C[C@@](O)(CCO)CC(=O)O [MVA, mevalonic acid]
prevention of DHEA-induced S phase depletion (HT-29 SF cells [2]; 48 hours): partially prevented this effect

C[C@]12CCC(=O)C=C1CC[C@@H]1[C@@H]2CC[C@@]2(C)[C@H]1CC[C@]2(C)O [Methyltestosterone]
effect on tissue adenosine ([3]; rats, administered daily for two weeks): multi-organ depletion of adenosine
